As usually defined, the pIC50 is the IC50 on a negative log10 scale, so that one unit is a factor of ten.

pIC50: −log10 of the molar value.

T1 sequence (Q9Y5Y9 whole entry): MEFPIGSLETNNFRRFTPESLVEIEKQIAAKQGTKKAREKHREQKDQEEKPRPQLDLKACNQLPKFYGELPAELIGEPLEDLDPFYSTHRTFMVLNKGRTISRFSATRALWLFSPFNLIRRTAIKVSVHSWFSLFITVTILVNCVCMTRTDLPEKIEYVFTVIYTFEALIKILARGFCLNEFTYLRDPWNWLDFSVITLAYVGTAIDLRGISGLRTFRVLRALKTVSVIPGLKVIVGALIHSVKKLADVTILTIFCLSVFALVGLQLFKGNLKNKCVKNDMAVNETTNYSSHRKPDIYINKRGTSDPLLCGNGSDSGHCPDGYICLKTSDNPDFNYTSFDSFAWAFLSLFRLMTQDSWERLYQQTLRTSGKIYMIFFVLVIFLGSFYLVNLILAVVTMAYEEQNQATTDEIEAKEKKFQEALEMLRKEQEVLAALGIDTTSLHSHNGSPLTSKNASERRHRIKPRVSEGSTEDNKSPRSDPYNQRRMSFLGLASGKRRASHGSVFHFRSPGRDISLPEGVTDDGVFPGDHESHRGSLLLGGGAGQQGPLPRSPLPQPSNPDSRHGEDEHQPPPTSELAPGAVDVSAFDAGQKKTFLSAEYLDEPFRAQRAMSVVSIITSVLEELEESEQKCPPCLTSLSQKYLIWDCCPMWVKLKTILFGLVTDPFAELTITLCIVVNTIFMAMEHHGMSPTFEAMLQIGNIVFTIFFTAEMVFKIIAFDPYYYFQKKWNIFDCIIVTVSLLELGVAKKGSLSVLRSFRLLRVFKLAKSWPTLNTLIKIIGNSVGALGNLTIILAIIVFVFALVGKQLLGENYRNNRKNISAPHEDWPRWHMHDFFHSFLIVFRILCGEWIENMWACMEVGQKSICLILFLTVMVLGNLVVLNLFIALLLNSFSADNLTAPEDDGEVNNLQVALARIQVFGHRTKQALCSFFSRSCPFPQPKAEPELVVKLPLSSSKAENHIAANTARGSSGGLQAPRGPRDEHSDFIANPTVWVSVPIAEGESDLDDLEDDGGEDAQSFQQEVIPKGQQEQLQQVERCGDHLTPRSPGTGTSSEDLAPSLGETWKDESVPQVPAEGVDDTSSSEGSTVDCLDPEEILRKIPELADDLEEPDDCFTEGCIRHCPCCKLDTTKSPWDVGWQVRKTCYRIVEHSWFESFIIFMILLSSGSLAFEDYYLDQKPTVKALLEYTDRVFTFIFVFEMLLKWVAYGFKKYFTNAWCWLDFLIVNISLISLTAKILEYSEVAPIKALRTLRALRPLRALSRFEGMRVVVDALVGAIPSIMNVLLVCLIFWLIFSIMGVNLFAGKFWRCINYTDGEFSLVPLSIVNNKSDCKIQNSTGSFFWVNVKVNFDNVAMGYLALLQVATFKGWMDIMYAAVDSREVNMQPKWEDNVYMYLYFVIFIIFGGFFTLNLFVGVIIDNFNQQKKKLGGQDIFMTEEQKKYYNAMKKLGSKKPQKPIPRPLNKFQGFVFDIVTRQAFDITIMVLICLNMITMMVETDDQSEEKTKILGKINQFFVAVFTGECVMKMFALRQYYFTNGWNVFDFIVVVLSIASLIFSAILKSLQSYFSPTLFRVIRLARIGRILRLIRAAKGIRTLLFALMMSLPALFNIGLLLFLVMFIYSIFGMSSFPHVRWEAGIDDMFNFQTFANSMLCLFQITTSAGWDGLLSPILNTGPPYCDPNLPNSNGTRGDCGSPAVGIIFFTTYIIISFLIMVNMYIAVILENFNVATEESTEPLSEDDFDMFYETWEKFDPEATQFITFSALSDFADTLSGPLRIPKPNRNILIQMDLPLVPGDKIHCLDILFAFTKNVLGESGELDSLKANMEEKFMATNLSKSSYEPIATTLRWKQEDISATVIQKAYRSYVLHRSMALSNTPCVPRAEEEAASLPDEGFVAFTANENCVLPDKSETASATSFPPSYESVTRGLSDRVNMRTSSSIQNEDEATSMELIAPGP

The test has as its target T1, Nav1.8 ion channel stably expressed on HEK293 cells (Homo sapiens, UniProt Q9Y5Y9).
T1 construct: expressed in transfected cells; host or cells: HEK293
The test is described as follows: Inhibitory activity on Nav1.8, manual patch clamp. The test is classed as cell-based. Conditions: resting, clamped at -80 mV, 1 μM TTX, read-out: IC50 on inhibiting the Nav1.8 channel activity. The text has this: The purpose of the experiment is to investigate the effect of the compounds on Nav1.8 ion channel in an in vitro experiment, wherein the Nav1.8 ion channel is stably expressed on HEK293 cells. After the Nav1.8 current becomes stable, the Nav1.8 currents before and after the administration of the compound are compared so as to obtain the effect of the compound on the Nav1.8 ion channel.
Except for NaOH and KOH used for acid titration and base titration, all the compounds used for formulating the extracellular fluid and intracellular fluid were purchased from Sigma (St. Louis, Mo.). Extracellular fluid (mM): NaCl, 137; KCl, 4; CaCl2), 1.8; MgCl2, 1; HEPES, 10; glucose, 10; pH 7.4 (NaOH titration). Intracellular fluid (mM): aspartic acid, 140; MgCl2, 2; EGTA, 11; HEPES, 10; pH 7.2 (CsOH titration). All solutions of test compound and control compound contained 1 μM TTX.
The test compound was dissolved in dimethyl sulfoxide (DMSO) at a stock concentration of 9 mM. The stock solution of the test compound was dissolved in the extracellular fluid on the day of the test and formulated into the required concentration.
1) The compound was formulated into solutions with specified concentrations, the solutions were added to the pipelines respectively in order from low to high concentration, and the pipelines were marked.
2) The cell was transferred to the perfusion tank. A positive pressure was applied to the electrode. The tip of the electrode touched the cell. The three-way valve of the air extracting device was adjusted to a three-way state. A negative pressure was applied to the electrode, so that a high-resistance seal was formed between the electrode and the cell.
The negative pressure was applied continuously, thereby causing the cell membrane to rupture and forming a current path.
3) After the current for rupturing the cell membrane became stable, perfusion of different concentrations was carried out in sequence. Once the current was stable for at least one minute, perfusion of the next concentration was carried out.
4) The perfusion tank was cleaned. The perfusion tank was rinsed with the drug solutions in order from high to low concentration, and the rinse duration for each concentration of drug solution was 20 seconds. The perfusion tank was finally rinsed with the extracellular fluid for 1 minute.
The cell was clamped at −80 mV. The cell was depolarized to 10 mV with a square wave lasting 10 milliseconds to obtain the Nav1.8 current. This procedure was repeated every 5 seconds. The maximum current caused by the square wave was measured. After the current became stable, the test compound was perfused. After the response became stable, the blocking intensity was calculated.
The data was stored in the computer system for analysis. Data collection and analysis were carried out by pCLAMP 10 (Molecular Devices, Union City, Calif.), and the analysis results were reviewed by the administrator. Stable current means that the current changes within a limited range over time. The magnitude of stable current was used to calculate the effect of the compound at the concentration.
For orientation: Patch clamp records ionic current or voltage across a cell membrane.
On to `O=C(Nc1cn[nH]c(=O)c1)c1cc(Cl)c(C(F)(F)F)cc1Oc1ccc(F)cc1F` [Example 46, 5-Chloro-2-(2,4-difluorophenoxy)-N-(6-oxo-1,6-dihydropyridazin-4-yl)-4-(trifluoromethyl)benzamide], for which the pIC50 is 8.05. `O=C(Nc1cn[nH]c(=O)c1)c1cc(Cl)c(C(F)(F)F)cc1Oc1ccc(F)cc1Br` [Example 43, 2-(2-Bromo-4-fluorophenoxy)-5-chloro-N-(6-oxo-1,6-dihydropyridazin-4-yl)-4-(trifluoromethyl)benzamide]: the negative-log IC50 (pIC50) is 8.47.

On to `Cc1cc(Oc2ccc(F)cc2C)c(C(=O)Nc2cn[nH]c(=O)c2)cc1Cl` [Example 28, 5-Chloro-2-(4-fluoro-2-methylphenoxy)-4-methyl-N-(6-oxo-1,6-dihydropyridazin-4-yl)benzamide], for which the pIC50 is 8.28. Regarding `O=C(Nc1cn[nH]c(=O)c1)c1cc(Cl)c(C(F)(F)F)cc1Oc1ccc(F)c2c1CCC2` [Example 39, 5-Chloro-2-((7-fluoro-2,3-dihydro-1H-inden-4-yl)oxy)-N-(6-oxo-1,6-dihydropyridazin-4-yl)-4-(trifluoromethyl)benzamide], the pIC50 is 9.62. To `O=C(Nc1cn[nH]c(=O)c1)c1cc(Cl)c(C(F)(F)F)cc1Oc1ccc(F)cc1OC1CCCC1` [Example 40, 5-Chloro-2-(2-(cyclopentyloxy)-4-fluorophenoxy)-N-(6-oxo-1,6-dihydropyridazin-4-yl)-4-(trifluoromethyl)benzamide] belongs 9.49; to `Cc1cc(F)ccc1Oc1cc(Cl)c(F)cc1C(=O)Nc1cn[nH]c(=O)c1` [Example 19, 4-Chloro-5-fluoro-2-(4-fluoro-2-methylphenoxy)-N-(6-oxo-1,6-dihydropyridazin-4-yl)benzamide], 7.50. To `Cc1cc(F)ccc1Oc1cc(C(F)(F)C(F)(F)F)ccc1C(=O)Nc1cn[nH]c(=O)c1` [Example 5, 2-(4-Fluoro-2-methylphenoxy)-N-(6-oxo-1,6-dihydropyridazin-4-yl)-4-(perfluoroethyl)benzamide] belongs 7.63; to `O=C(Nc1cn[nH]c(=O)c1)c1cc(Cl)c(C(F)(F)F)cc1Oc1ccc(F)cc1Cl` [Example 45, 5-Chloro-2-(2-chloro-4-fluorophenoxy)-N-(6-oxo-1,6-dihydropyridazin-4-yl)-4-(trifluoromethyl)benzamide], 8.29.

On to `Cc1cc(F)ccc1Oc1cc(Cl)c(C(F)(F)F)cc1C(=O)Nc1cn[nH]c(=O)c1` [Example 27, 4-Chloro-2-(4-fluoro-2-methylphenoxy)-N-(6-oxo-1,6-dihydropyridazin-4-yl)-5-(trifluoromethyl)benzamide], for which the pIC50 is 8.24.

As to `CC(C)Oc1cc(F)ccc1Oc1cc(C(F)(F)F)c(Cl)cc1C(=O)Nc1cn[nH]c(=O)c1` [Example 42], the pIC50 is 8.53. Under `COc1cc(F)ccc1Sc1cc(C(F)(F)F)c(Cl)cc1C(=O)Nc1cn[nH]c(=O)c1` [Example 17, 5-Chloro-2-((4-fluoro-2-methoxyphenyl)thio)-N-(6-oxo-1,6-dihydropyridazin-4-yl)-4-(trifluoromethyl)benzamide] stands 7.74; under `COc1cc(F)ccc1Oc1cc(Cl)c(Cl)cc1C(=O)Nc1cn[nH]c(=O)c1` [Example 1, 4,5-Dichloro-2-(4-fluoro-2-methoxyphenoxy)-N-(6-oxo-1,6-dihydropyridazin-4-yl)benzamide], 8.80; under `[2H]C([2H])([2H])c1cc(F)ccc1Oc1cc(C(F)(F)F)c(Cl)cc1C(=O)Nc1cn[nH]c(=O)c1` [Example 44, 5-Chloro-2-(4-fluoro-2-(methyl-d3)phenoxy)-N-(6-oxo-1,6-dihydropyridazin-4-yl)-4-(trifluoromethyl)benzamide], 8.39. Regarding `COc1cc(F)ccc1Oc1cc(C(F)(F)F)ccc1C(=O)Nc1cn[nH]c(=O)c1` [Example 8, 2-(4-Fluoro-2-methoxyphenoxy)-N-(6-oxo-1,6-dihydropyridazin-4-yl)-4-(trifluoromethyl)benzamide], the pIC50 is 7.34. To `CCc1cc(F)ccc1Oc1cc(C(F)(F)F)c(Cl)cc1C(=O)Nc1cn[nH]c(=O)c1` [Example 36, 5-Chloro-2-(2-ethyl-4-fluorophenoxy)-N-(6-oxo-1,6-dihydropyridazin-4-yl)-4-(trifluoromethyl)benzamide] belongs 8.81; to `CCOc1cc(F)ccc1Oc1cc(C(F)(F)F)c(Cl)cc1C(=O)Nc1cn[nH]c(=O)c1` [Example 32, 5-Chloro-2-(2-ethoxy-4-fluorophenoxy)-N-(6-oxo-1,6-dihydropyridazin-4-yl)-4-(trifluoromethyl)benzamide], 9.43. To `COc1cc(F)ccc1Oc1cc(Cl)c(F)cc1C(=O)Nc1cn[nH]c(=O)c1` [Example 18, 4-Chloro-5-fluoro-2-(4-fluoro-2-methoxyphenoxy)-N-(6-oxo-1,6-dihydropyridazin-4-yl)benzamide] belongs 7.65; to `O=C(Nc1cn[nH]c(=O)c1)c1cc(Cl)c(C(F)(F)F)cc1Oc1ccc(F)cc1OC(F)F` [Example 37, 5-Chloro-2-(2-(difluoromethoxy)-4-fluorophenoxy)-N-(6-oxo-1,6-dihydropyridazin-4-yl)-4-(trifluoromethyl)benzamide], 8.62. Turning to `COc1cc(F)ccc1Oc1ccc(OC(F)(F)F)cc1C(=O)Nc1cn[nH]c(=O)c1` [Example 22, 2-(4-Fluoro-2-methoxyphenoxy)-N-(6-oxo-1,6-dihydropyridazin-4-yl)-5-(trifluoromethoxy)benzamide], the pIC50 is 7.06.

In the case of `Cc1cc(F)ccc1Oc1cc(C(F)(F)F)ccc1C(=O)Nc1cn[nH]c(=O)c1` [Example 9, 2-(4-Fluoro-2-methylphenoxy)-N-(6-oxo-1,6-dihydropyridazin-4-yl)-4-(trifluoromethyl)benzamide], the pIC50 was 7.08.

`O=C(Nc1cn[nH]c(=O)c1)c1cc(Cl)c(Cl)cc1Oc1ccc(F)cc1` [Example 4, 4,5-Dichloro-2-(4-fluorophenoxy)-N-(6-oxo-1,6-dihydropyridazin-4-yl)benzamide]: the pIC50 was 7.85. Turning to `O=C(Nc1cn[nH]c(=O)c1)c1cc(Cl)c(C(F)(F)F)cc1Oc1ccc(OC(F)(F)F)cc1F` [Example 14, 5-Chloro-2-(2-fluoro-4-(trifluoromethoxy)phenoxy)-N-(6-oxo-1,6-dihydropyridazin-4-yl)-4-(trifluoromethyl)benzamide], the negative-log IC50 (pIC50) was 8.60.

On to `Cc1cc(F)ccc1Oc1cc(Cl)c(Cl)cc1C(=O)Nc1cn[nH]c(=O)c1` [Example 3, 4,5-Dichloro-2-(4-fluoro-2-methylphenoxy)-N-(6-oxo-1,6-dihydropyridazin-4-yl)benzamide], for which the negative logarithm of the IC50 (pIC50) was 8.48.

`Cc1cc(F)ccc1Oc1cc(C(F)(F)F)cc(C(F)(F)F)c1C(=O)Nc1cn[nH]c(=O)c1` [Example 29, 2-(4-Fluoro-2-methylphenoxy)-N-(6-oxo-1,6-dihydropyridazin-4-yl)-4,6-bis(trifluoromethyl)benzamide]: the pIC50 was 7.04. To `O=C(Nc1cn[nH]c(=O)c1)c1cc(Cl)c(C(F)(F)F)cc1Oc1ccc(F)cc1OC1CCC1` [Example 41, 5-Chloro-2-(2-cyclobutoxy-4-fluorophenoxy)-N-(6-oxo-1,6-dihydropyridazin-4-yl)-4-(trifluoromethyl)benzamide] belongs 8.73; to `Cc1cc(F)ccc1Oc1ccc(C(F)(F)F)cc1C(=O)Nc1cn[nH]c(=O)c1` [Example 7, 2-(4-Fluoro-2-methylphenoxy)-N-(6-oxo-1,6-dihydropyridazin-4-yl)-5-(trifluoromethyl)benzamide], 7.51. To `Cc1cc(F)ccc1Oc1ccc(Cl)cc1C(=O)Nc1cn[nH]c(=O)c1` [Example 23, 5-Chloro-2-(4-fluoro-2-methylphenoxy)-N-(6-oxo-1,6-dihydropyridazin-4-yl)benzamide] belongs 7.03; to `COc1cc(F)ccc1Oc1cc(Cl)ccc1C(=O)Nc1cn[nH]c(=O)c1` [Example 21, 4-Chloro-2-(4-fluoro-2-methoxyphenoxy)-N-(6-oxo-1,6-dihydropyridazin-4-yl)benzamide], 7.23; to `Cc1cc(F)ccc1Cc1cc(C(F)(F)F)c(Cl)cc1C(=O)Nc1cn[nH]c(=O)c1` [Example 13, 5-Chloro-2-(4-fluoro-2-methylbenzyl)-N-(6-oxo-1,6-dihydropyridazin-4-yl)-4-(trifluoromethyl)benzamide], 8.64.

The values are drawn from patent publication US20220073471A1 (JIANGSU HENGRUI MEDICINE CO., LTD., priority 2019, published 2022).
